From patent US10449135B2, “Solublizing agents for UV filters in cosmetic formulations” (BASF SE, priority 2014, dated 2019)

Assay: Solubility tests of UV filters in the solubilizing agent
Assay type: physicochemical
Details: solvent: morpholine amide of formula (AM-01); stirred seven days at 25° C.; concentration by UV/Vis-spectrometry
Experimental: 2 ml of the solubilizing agent are filled into a 20 ml vial with cap. Afterwards 0.02 g (1%) of the respective substance (UV Filter) are weighed and added to the solvent. The vial is placed into a thermostat-controlled water bath, wherein the suspension/solution is stirred during seven days at 25° C. If the amount of substance put into the solubilizing agent is fully soluble, additional substance is added until precipitation can be observed. After seven days, the sample is centrifuged for 30 minutes at 13000 rpm at 25° C. The supernatant is transferred into a small beaker. In case the sample is still turbid, it is filtered through a 0.2 μm non-steril Membrex 25 PET filter. Clear solutions must not be filtered. When a clear solution is obtained, the concentration of the substance is determined with UV/Vis-spectrometry. For this purpose the sample may be diluted with a suitable solvent or, in case of lower concentrations, may be measured as is. In order to evaluate the concentration from the UV-spectroscopic results, the extinction coefficient is needed, which is determined independently with a solvent of similar polarity like that one used for dilution of the saturated solutions. The solubility can be calculated using the equation of the Lambert-Beer-Law.

SMILES | Solubility of UV filter in solubilizing agent
CCCCC(CC)COc1ccc(-c2nc(-c3ccc(OC)cc3)nc(-c3ccc(OCC(CC)CCCC)cc3O)n2)c(O)c1 (stereo not drawn) [HTP-02] | 15%
CCCCC(CC)COC(=O)c1ccc(Nc2nc(Nc3ccc(C(=O)OCC(CC)CCCC)cc3)nc(Nc3ccc(C(=O)OCC(CC)CCCC)cc3)n2)cc1 (stereo not drawn) [TAT-02] | 45%
CCCCCCOC(=O)c1ccccc1C(=O)c1ccc(N(CC)CC)cc1O [BPH-02] | >40%
